Test results published in US12708649B2, “Compositions and methods for improving skin health and for the treatment and prevention of diseases, disorders and conditions associated with fungi and other pathogenic microbes” (priority 2020, dated 2026).
≈ marks a conversion by molar mass, not a printed value. Where two headings read alike, the source gives them in different places.

Columns and labels:
DB05646 = test: Antibiotic MIC tests; type: cell-based, Alcaligenes faecalis; conditions: for MIC: Alcaligenes faecalis
DB02473 = test: Antibiotic MIC tests; type: cell-based
DB00376 = test: Antibiotic MIC tests; type: cell-based
DB10033 = test: Antibiotic MIC tests; type: cell-based, Bacillus altitudinis; conditions: for MIC: Bacillus altitudinis
E. coli ATCC 25922 = conditions: MIC; cited from earlier work
[1] = 24 h, read-out: MIC, DB05646 24 hr
[2] = 48 h, read-out: MIC, DB05646 48 hr
[3] = 24 h; read-out: MIC, DB02473 24 hr
[4] = 48 h; read-out: MIC, DB02473 48 hr
[5] = 24 h, read-out: MIC, DB00376 24 hr
[6] = 48 h, read-out: MIC, DB00376 48 hr
[7] = 24 h, read-out: MIC, DB10033 24 hr
[8] = 48 h, read-out: MIC, DB10033 48 hr

| Compound | MIC, DB05646 24 hr (DB05646) [µg/mL] | MIC, DB05646 48 hr (DB05646) [µg/mL] | MIC, DB02473 24 hr (DB02473; 24 hr) [µg/mL] | MIC, DB02473 48 hr (DB02473; 48 hr) [µg/mL] | MIC, DB00376 24 hr (DB00376) [µg/mL] | MIC, DB00376 48 hr (DB00376) [µg/mL] | MIC, DB10033 24 hr (DB10033) [µg/mL] | MIC, DB10033 48 hr (DB10033) [µg/mL] | MIC (DB05646; [1]) [µg/mL] | MIC (DB05646; [2]) [µg/mL] | MIC (DB02473; [3]) [µg/mL] | MIC (DB02473; [4]) [µg/mL] | MIC (DB00376; [5]) [µg/mL] | MIC (DB00376; [6]) [µg/mL] | MIC (DB10033; [7]) [µg/mL] | MIC (DB10033; [8]) [µg/mL] | MIC (DB02473; 24 h, read-out: MIC, DB02473 24 hr) [µg/mL] | MIC (DB02473; 48 h, read-out: MIC, DB02473 48 hr) [µg/mL] | E. coli ATCC 25922 CLSI QC Range (E. coli ATCC 25922) |
| --- | --- | --- | --- | --- | --- | --- | --- | --- | --- | --- | --- | --- | --- | --- | --- | --- | --- | --- | --- |
| Neomycin | 8 | 16 | ≤0.06 | 0.25 | 0.125 | 0.25 | 0.125 | 0.125 | – | – | – | – | – | – | – | – | – | – | – |
| Amoxicillin/Clavulanate (4:1) | 32 | 32 | ≤0.06 | ≤0.06 | ≤0.06 | ≤0.06 | ≤0.06 | ≤0.06 | – | – | – | – | – | – | – | – | – | – | – |
| C/C(=C\C(=O)OCCCCCCCCC(=O)O)C[C@@H]1OC[C@H](C[C@@H]2O[C@H]2[C@@H](C)[C@H](C)O)[C@@H](O)[C@H]1O [Mupirocin] | – | – | – | – | – | – | – | – | 64 (≈ 128 µM) | 128 (≈ 256 µM) | ≤ 1 | ≤ 1 | 2 (≈ 3.99 µM) | 16 (≈ 32 µM) | 8 (≈ 16 µM) | 64 (≈ 128 µM) | – | – | – |
| CCC[C@@H]1C[C@@H](C(=O)N[C@@H]([C@H]2O[C@H](SC)[C@H](O)[C@@H](O)[C@H]2O)[C@H](C)Cl)N(C)C1 [Clindamycin] | – | – | – | – | – | – | – | – | > 64 | > 64 | 0.5 (≈ 1.18 µM) | 2 (≈ 4.71 µM) | 1 (≈ 2.35 µM) | 4 (≈ 9.41 µM) | 0.125 (≈ 0.294 µM) | 2 (≈ 4.71 µM) | – | – | – |
| CN(C)c1ccc(O)c2c1C[C@H]1C[C@H]3[C@H](N(C)C)C(O)=C(C(N)=O)C(=O)[C@@]3(O)C(O)=C1C2=O [Minocycline] | – | – | – | – | – | – | – | – | 2 (≈ 4.37 µM) | 4 (≈ 8.74 µM) | 0.125 (≈ 0.273 µM) | 0.5 (≈ 1.09 µM) | 0.0625 (≈ 0.137 µM) | 0.25 (≈ 0.546 µM) | 2 (≈ 4.37 µM) | 2 (≈ 4.37 µM) | – | – | – |
| O=C(N[C@H](CO)[C@H](O)c1ccc([N+](=O)[O-])cc1)C(Cl)Cl [Chloramphenicol] | – | – | – | – | – | – | – | – | 8 (≈ 24.8 µM) | 16 (≈ 49.5 µM) | – | – | 2 (≈ 6.19 µM) | 8 (≈ 24.8 µM) | 2 (≈ 6.19 µM) | 4 (≈ 12.4 µM) | 4 (≈ 12.4 µM) | 16 (≈ 49.5 µM) | – |
| CC[C@H]1OC(=O)[C@H](C)[C@@H](O[C@H]2C[C@@](C)(OC)[C@@H](O)[C@H](C)O2)[C@H](C)[C@@H](O[C@@H]2O[C@H](C)C[C@H](N(C)C)[C@H]2O)[C@](C)(O)C[C@@H](C)C(=O)[C@H](C)[C@@H](O)[C@]1(C)O [Erythromycin] | – | – | – | – | – | – | – | – | 16 (≈ 21.8 µM) | 64 (≈ 87.2 µM) | – | 0.125 (≈ 0.17 µM) | 0.125 (≈ 0.17 µM) | 0.5 (≈ 0.681 µM) | ≤ 0.06 | ≤ 0.06 | – | – | – |
| C[C@@H](O)[C@H]1C(=O)N2C(C(=O)O)=C(S[C@@H]3CN[C@H](C(=O)N(C)C)C3)[C@H](C)[C@H]12 [Meropenem] | – | – | – | – | – | – | – | – | ≤ 0.06 | ≤ 0.06 | ≤ 0.06 | ≤ 0.06 | ≤ 0.06 | ≤ 0.06 | ≤ 0.06 | 0.125 (≈ 0.326 µM) | – | – | 0.008 to 0.06 µg/mL |
| CC[C@H]1OC(=O)[C@H](C)[C@@H](O[C@H]2C[C@@](C)(OC)[C@@H](O)[C@H](C)O2)[C@H](C)[C@@H](O[C@@H]2O[C@H](C)C[C@H](N(C)C)[C@H]2O)[C@](C)(O)C[C@@H](C)CN(C)[C@H](C)[C@@H](O)[C@]1(C)O [Azithromycin] | – | – | – | – | – | – | – | – | 2 (≈ 2.67 µM) | 2 (≈ 2.67 µM) | 0.5 (≈ 0.668 µM) | – | 0.25 (≈ 0.334 µM) | 1 (≈ 1.34 µM) | 0.2 (≈ 0.267 µM) | 0.2 (≈ 0.267 µM) | – | – | – |
| O=C(O)c1cn(C2CC2)c2cc(N3CCNCC3)c(F)cc2c1=O [Ciprofloxacin] | – | – | – | – | – | – | – | – | 2 (≈ 6.04 µM) | 2 (≈ 6.04 µM) | ≤ 0.06 | 0.125 (≈ 0.377 µM) | 0.0625 (≈ 0.189 µM) | 0.5 (≈ 1.51 µM) | 0.125 (≈ 0.377 µM) | 1 (≈ 3.02 µM) | – | – | – |
| CN(C)[C@@H]1C(O)=C(C(N)=O)C(=O)[C@@]2(O)C(O)=C3C(=O)c4c(O)cccc4[C@@](C)(O)[C@H]3C[C@@H]12 [Tetracycline] | – | – | – | – | – | – | – | – | 4 (≈ 9 µM) | 16 (≈ 36 µM) | – | – | 0.0625 (≈ 0.141 µM) | – | – | – | – | – | – |
| C[C@H]1COc2c(N3CCN(C)CC3)c(F)cc3c(=O)c(C(=O)O)cn1c23 [Levofloxacin] | – | – | – | – | – | – | – | – | 1 (≈ 2.77 µM) | 1 (≈ 2.77 µM) | ≤ 0.06 | – | ≤ 0.06 | 0.125 (≈ 0.346 µM) | ≤ 0.06 | 0.125 (≈ 0.346 µM) | – | – | – |
| CO/N=C(\C(=O)N[C@@H]1C(=O)N2C(C(=O)[O-])=C(C[N+]3(C)CCCC3)CS[C@H]12)c1csc(N)n1 [Cefepime] | – | – | – | – | – | – | – | – | 4 (≈ 8.32 µM) | 8 (≈ 16.6 µM) | 2 (≈ 4.16 µM) | 4 (≈ 8.32 µM) | 1 (≈ 2.08 µM) | 64 (≈ 133 µM) | 64 (≈ 133 µM) | 64 (≈ 133 µM) | – | – | 0.016 to 0.12 µg/mL |
| Povidone-iodine | >1024 | >1024 | >1024 | >1024 | >1024 | >1024 | >1024 | >1024 | – | – | – | – | – | – | – | – | – | – | – |
| C[C@H]1[C@H](NC(=O)/C(=N\OC(C)(C)C(=O)O)c2csc(N)n2)C(=O)N1S(=O)(=O)O [Aztreonam] | – | – | – | – | – | – | – | – | 32 (≈ 73.5 µM) | 32 (≈ 73.5 µM) | > 64 | > 64 | 16 (≈ 36.7 µM) | > 64 | > 64 | > 64 | – | – | 0.06 to 0.25 µg/mL |
| Polymyxin B | 1 | 1 | 4 | 8 | 8 | 16 | 8 | 16 | – | – | – | – | – | – | – | – | – | – | 0.25 to 2 µg/mL |
| [H]/N=C(\N/C(=N/[H])NCCCCCCNC(=N)NC(=N)Nc1ccc(Cl)cc1)Nc1ccc(Cl)cc1 [Chlorhexidine] | – | – | – | – | – | – | – | – | 32 (≈ 63.3 µM) | 32 (≈ 63.3 µM) | 1 (≈ 1.98 µM) | – | 0.5 (≈ 0.989 µM) | 1 (≈ 1.98 µM) | 1 (≈ 1.98 µM) | 2 (≈ 3.96 µM) | – | – | – |
| NCC[C@H](O)C(=O)N[C@@H]1C[C@H](N)[C@@H](O[C@H]2O[C@H](CN)[C@@H](O)[C@H](O)[C@H]2O)[C@H](O)[C@H]1O[C@H]1O[C@H](CO)[C@@H](O)[C@H](N)[C@H]1O [Amikacin] | – | – | – | – | – | – | – | – | 4 (≈ 6.83 µM) | 4 (≈ 6.83 µM) | 0.25 (≈ 0.427 µM) | 0.25 (≈ 0.427 µM) | 0.5 (≈ 0.854 µM) | 1 (≈ 1.71 µM) | 0.5 (≈ 0.854 µM) | 2 (≈ 3.42 µM) | – | – | 0.5-4^ μg/mL |
| CO/N=C(\C(=O)N[C@@H]1C(=O)N2C(C(=O)O)=C(CSc3nc(=O)c(=O)[nH]n3C)CS[C@H]12)c1csc(N)n1 [Ceftriaxone] | – | – | – | – | – | – | – | – | 0.25 (≈ 0.451 µM) | 0.25 (≈ 0.451 µM) | 4 (≈ 7.21 µM) | 16 (≈ 28.9 µM) | 2 (≈ 3.61 µM) | 4 (≈ 7.21 µM) | 16 (≈ 28.9 µM) | 16 (≈ 28.9 µM) | – | – | 0.03 to 0.12 µg/mL |
